According to patent publication US5246830A, “Enzymatic process for the determination of β-lactam antibiotics” (Ucb Bioproducts, S.A., priority 1990, dated 1993):

Columns and labels:
[1] = target: T1, enzyme R39 (Actinomadura sp. R39, UniProt P39045); assay: Hydrolysis of thioester-type substrate by enzyme R39 and its activation by D-amino acids; format: biochemical; settings: for activating effect on the thioester hydrolysis reaction by enzyme R39: thioester-type substrate of formula I; for activity of enzyme R39 on the substrate: one unit hydrolyzes 1 micromole of substrate per minute at 47° C.
Source text: In other words, in the presence of this activator, the rate of hydrolysis of the substrate by enzyme R39 is 40 times higher.

[2] = target: T2, enzyme R39 (soluble D-alanyl-D-alanine carboxypeptidase produced by Actinomadura R39) (Actinomadura sp. R39, UniProt P39045); assay: Enzymatic determination of penicillin G in milk with [(N-phenylacetyl-D-alanyl)thio]-acetic acid as substrate (Example 4); format: biochemical; settings: Example 4, Table IV
T2 construct: added to milk or serum samples
Procedure: The process is the same as in example 3, except that, after the first incubation, 120 μl of an aqueous solution containing 5 mg/ml of [(N-phenylacetyl-D-alanyl)thio]-acetic acid are added.

[3] = target: T2, enzyme R39 (soluble D-alanyl-D-alanine carboxypeptidase produced by Actinomadura R39); assay: Enzymatic determination of cephapirin in milk (Example 6); format: biochemical
Procedure: The process is the same as in example 3, but the samples of 3 ml of milk contain known concentrations of cephapirin.

[4] = system: cells or cell parts of Bacillus stearothermiphilus; settings: enzyme-tagged antibiotic, visual colorimetric method; cited from earlier work
[5] = target: T1, enzyme R39; settings: about 20 μl milk, 3 picomoles enzyme R39, cited from earlier work

T2 sequence (P39045 50-515): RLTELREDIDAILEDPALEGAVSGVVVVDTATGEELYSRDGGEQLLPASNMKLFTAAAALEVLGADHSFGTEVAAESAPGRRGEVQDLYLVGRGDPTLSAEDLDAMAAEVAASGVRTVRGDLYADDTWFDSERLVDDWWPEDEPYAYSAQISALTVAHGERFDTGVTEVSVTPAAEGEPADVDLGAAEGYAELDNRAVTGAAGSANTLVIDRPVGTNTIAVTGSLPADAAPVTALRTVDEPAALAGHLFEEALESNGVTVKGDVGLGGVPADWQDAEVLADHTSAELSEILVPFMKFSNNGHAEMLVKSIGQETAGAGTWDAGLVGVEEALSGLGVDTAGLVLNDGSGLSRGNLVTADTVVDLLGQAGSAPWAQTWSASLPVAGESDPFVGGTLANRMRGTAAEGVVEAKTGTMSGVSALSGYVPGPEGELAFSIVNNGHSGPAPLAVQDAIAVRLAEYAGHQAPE
T1 sequence (P39045 50-515): as above

CC[C@@H](N)C(=O)O [D-2-aminobutyric acid]
activating effect on the thioester hydrolysis reaction by enzyme R39 [1]: best activators

C[C@@H](N)C(=O)O [D-alanine]
activating effect on the thioester hydrolysis reaction by enzyme R39 [1]: best activators

N=C(N)NCCC[C@@H](N)C(=O)O [D-arginine]
activating effect on the thioester hydrolysis reaction by enzyme R39 [1]: best activators

N[C@H](Cc1c[nH]cn1)C(=O)O [D-histidine]
activating effect on the thioester hydrolysis reaction by enzyme R39 [1]: best activators

CSCC[C@@H](N)C(=O)O [D-methionine]
activating effect on the thioester hydrolysis reaction by enzyme R39 [1]: best activators

N[C@H](Cc1ccccc1)C(=O)O [D-phenylalanine]
activating effect on the thioester hydrolysis reaction by enzyme R39 [1]: best activators

N[C@H](CO)C(=O)O [D-serine]
activating effect on the thioester hydrolysis reaction by enzyme R39 [1]: best activators

N[C@H](Cc1c[nH]c2ccccc12)C(=O)O [D-tryptophan]
activating effect on the thioester hydrolysis reaction by enzyme R39 [1]: best activators

CC(C)[C@@H](N)C(=O)O [D-valine]
activating effect on the thioester hydrolysis reaction by enzyme R39 [1]: best activators

C[C@@H](NC(=O)c1ccccc1)C(=O)SCC(=O)O [[(N-benzoyl-D-alanyl)thio]-acetic acid]
performance as substrate for enzyme R39 ([1]; among thioesters of formula I): best results
activity of enzyme R39 on the substrate ([1]; in the absence of D-alanine): 8 units per milligram of enzyme
activity of enzyme R39 on the substrate ([1]; in the presence of D-alanine): 320 units per milligram of enzyme

C[C@@H](NC(=O)Cc1ccccc1)C(=O)SCC(=O)O [[(N-phenylacetyl-D-alanyl)thio]-acetic acid]
process carried out with this compound as substrate [2]: successfully

CC(=O)OCC1=C(C(=O)O)N2C(=O)[C@@H](NC(=O)CSc3ccncc3)[C@H]2SC1 [cephapirin]
Coloration ([3]; cephapirin 0.002 μg/ml in 3 ml milk): medium yellow
Coloration ([3]; cephapirin 0.003 μg/ml in 3 ml milk): pale yellow
Coloration ([3]; cephapirin 0.004 μg/ml in 3 ml milk): white
Coloration ([3]; cephapirin 0.006 μg/ml in 3 ml milk): white
cephapirin concentration in milk detected visually ([3]; in 15 minutes time): 0.004 µg/mL

NCC(=O)O [glycine]
activating effect on the thioester hydrolysis reaction by enzyme R39 [1]: activating effect

penicillin
penicillin concentration threshold detected in milk [4]: 0.05 IU/ml
penicillin concentration in milk quantitatively determined (spectrophotometer) [5]: 0.02 I.U./ml
penicillin concentration in milk qualitatively determined by the visual method ([5]; in less than one hour): more than 0.09 I.U./ml
